Data set [1] deals with P388/ADR cells. Description: Combination of antifolates with FU and LV on P388/ADR proliferation. The format is cell-based, murine.
A further data set deals with C26/10 tumor. Briefly: C26/10 s.c. tumor growth delay study. The format is in vivo, CD2F1 mice. The following applies: tumor growth delay to 750 mg, s.c. implant, treated i.p. Days 3-7 and 10-14; >5 to 6 days = antitumor effect. The procedure:
(§1) To test compounds of the present invention in vivo, the following methodology was used. P388 leukemia and its Adriamycin resistant subline, P388/ADR were passed weekly in DBA/2 mice as i.p. implants of 10^5 and 10^6 cells, respectively. Animals bearing P388/ADR passage were treated with 7 mg/kg Adriamycin on Day 3 post-implant as a resistance selection pressure. C26/clone 10 was passed every 2 weeks into Balb/c mice as tumor fragments (approximately 30 mg) which were obtained from tumors 1 g in mass.
For the tumor growth delay studies with C26/10, CD2F1 mice were implanted s.c. with 30 mg tumor fragments in the region of the right axilla with the aid of a trocar on Day 0. Animals were treated i.p. with test agents in the vehicles described above on Days 3-7 and 10-14. Adriamycin was dosed i.p. in saline on Days 5, 9, and 13. Tumors in the treated and control groups were measured twice weekly in two perpendicular dimensions and tumor mass calculated according to the formula: mass (mg)=(a×b^2)/2 where “b” is the smallest tumor dimension and “a” is the largest. Calculations of tumor growth delay, defined as the median time (in days) for the treated tumors to reach 750 mg in size minus the median time (in days) for the control tumors to reach 750 mg in size, were as described previously (Schabel, 1977; Leopold, 1985; Elliot, 1984). Growth delays in excess of 5 to 6 days in the C26/10 model are considered to be an antitumor effect.

The next data set deals with P388/ADR leukemia. Briefly: In vivo P388/ADR leukemia life span study. More on the design: species or system CD2F1 mice. The conditions noted are these: for P388/ADR T/C: maximum tolerated dose, i.p. Days 3-11 (Adriamycin Days 3, 7, 11), >130 = antitumor effect.
The test system of data set [2] is Colon 26/clone 10 (C26/10). Description: Colon 26/clone 10 i.p. life span study. Type of data set: in vivo, CD2F1 mice. The conditions noted are these: for C26 ip T/C: i.p. implant, treated i.p. Days 3-7 and 10-14 (Adriamycin Days 5, 9, 13), >130 = antitumor effect. The procedure: as §1
Colon 26/clone 10 (C26/10) life span studies were conducted in CD2F1 mice. C26/C10 cells were implanted i.p. on Day 0. Animals were treated i.p. with test agents in the vehicles described above on Days 3-7 and 10-14. Adriamycin was dosed i.p. in saline on Days 5, 9, and 13. […] Percent T/C values in excess of 130 are indicative of an antitumor effect in this model.

The next data set has as its system P388 leukemia. Description: In vivo P388 leukemia life span study. More on the design: species or system CD2F1 mice. The following applies: maximum tolerated dose, i.p. Days 3-11 (Adriamycin Days 3, 7, 11); >130 = antitumor effect.
The next data set concerns colon cancer. The conditions noted are these: cited from earlier work.
Data set [3] has as its system HT29 human colon adenocarcinoma cells. Briefly: Combination of antifolates with FU and LV on HT-29 proliferation (sulphorhodamine B). The conditions noted are these: for Antifol: antifolate 62.5 nM, 24 hours.
Data set [4] deals with C26 murine colon tumor cells. Description: Combination of antifolates with FU and LV on C26 proliferation. The format is cell-based.
Data set [5] relates to P388 murine leukemia cells. Description: Combination of antifolates with FU and LV on P388 proliferation. The format is cell-based. The following applies: for Antifol + FU / Antifol + LV / Antifol + LV + FU: antifolate 1.0 nM 24 hours; for Antifol + FU / Antifol + LV + FU: 5 μM FU final 4 hours; for Antifol + LV / Antifol + LV + FU: LV 10 μM final 4.5 hours; for Antifol: antifolate 1.0 nM, 24 hours.

Another data set relates to P388S cells. Briefly: In vitro growth inhibition of P388S cells. The format is cell-based. The following applies: Mus musculus, P388/S; in vitro; read-out: P388S IC50.
Data set [6] concerns P388/ADR cells. Briefly: In vitro growth inhibition of P388/ADR cells. Type of data set: cell-based, murine. The following applies: for IC50: Mus musculus, P388/ADR, in vitro; for R/S: ratio resistant (P388/ADR) to sensitive (P388S) IC50.
Another data set deals with T1, dihydrofolate reductase (Homo sapiens, UniProt P00374).
T1 sequence (P00374 1-187): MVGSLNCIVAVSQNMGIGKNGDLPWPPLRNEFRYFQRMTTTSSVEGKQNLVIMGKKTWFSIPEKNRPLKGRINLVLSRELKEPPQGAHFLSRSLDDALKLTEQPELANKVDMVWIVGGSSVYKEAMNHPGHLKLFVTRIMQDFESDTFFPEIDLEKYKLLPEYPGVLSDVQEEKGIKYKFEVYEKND
Description: Inhibition of dihydrofolate reductase (Table 1). The format is biochemical.

Data set [7] deals with HT29 human colon adenocarcinoma cells.
Setting [8] is: in words, TMQ at a concentration 10-fold higher than the other antifolates.
The mark [9] stands for this setting: antifolate 62.5 nM 24 hours, LV 10 μM final 4.5 hours.

The source of these data is patent US20040006042A1, “Diaminopyrimidines and combination therapies effective for treatment of P-glycoprotein positive cancers” (priority 1998, published 2004).

Each structure is given as a SMILES string. pKi: −log10 of the molar value. In brackets after ≈: the same amount, converted by molar mass. Like-named read-outs stand apart in the source and are kept apart here.

In the case of `COc1cc(NCc2ccc3nc(N)nc(N)c3c2C)cc(OC)c1OC` [Trimetrexate, reference compound], the “Antifol + FU” value with P388/ADR cells [1] (P388/ADR, TMQ 10 nM 24 hours, 5 μM FU final 4 hours) is on record as 83% of control; in [3] (antifolate 62.5 nM 24 hours, 5 μM FU final 4 hours) it was 35% of control; in data set [4] (C26, antifolate 0.125 μM 24 hours, 5 μM FU final 4 hours) it was 65% of Control; in [5], 12% of control. Moreover, the “Antifol + LV” value in the data set with P388/ADR cells [1] (P388/ADR, TMQ 10 nM 24 hours, LV 10 μM final 4.5 hours) is 100% of control; in data set [3] (setting [9]), 77% of control; in data set [4] (C26, antifolate 0.125 μM 24 hours, LV 10 μM final 4.5 hours), 98% of Control; in [5], 85% of control. Also, the “Antifol + LV + FU” value with P388/ADR cells [1] (P388/ADR, TMQ 10 nM 24 hours, LV 10 μM final 4.5 hours, 5 μM FU final 4 hours) was 76% of control; in [3] (antifolate 62.5 nM 24 hours, LV 10 μM final 4.5 hours, 5 μM FU final 4 hours), 30% of control; in data set [5], 9% of control. Besides, the Antifol in the data set on P388/ADR cells [1] (P388/ADR, TMQ 10 nM, 24 hours) is recorded as 92% of control; in [3], 75% of control; in [4] (C26, antifolate 0.125 μM, 24 hours) it was 101% of Control; in data set [5] it was 80% of control. In the data set with P388/ADR cells [1] (setting [8]), the “activity alone against P388/ADR cells” value is recorded as “little activity alone”. The “increase in activity by addition of FU or LV, P388/ADR cells” value in the data set with P388/ADR cells [1] (setting [8]) is recorded as “nor was a significant increase in activity observed”. Also, the “C26 sc T-C” value with C26/10 tumor was determined as 6.8 days. The “activity against P388/ADR tumors in vivo” value with P388/ADR leukemia (in words) is “inactive”. Further, the “P388/ADR T/C” value in the data set on P388/ADR leukemia came to 113%. The “C26 ip T/C” value in [2] amounted to 119%. Besides, the “activity against C26 colon tumor in vivo” value in [2] (in words, T/C×100>130 represents in vivo antitumor activity) is given as “without activity”. The “P388S T/C” value in the data set with P388 leukemia came out at 164%. Also, the response rate in the data set with colon cancer (TMQ added to LV/FU, colon cancer patients previously treated with FU) was 20%; in the data set with colon cancer (combination of TMQ, FU and LV, metastatic colorectal cancer patients) it was 50%. Further, the “Antifol + FU + LV” value in [4] (C26, antifolate 0.125 μM 24 hours, LV 10 μM final 4.5 hours, 5 μM FU final 4 hours) is 64% of Control. For the same molecule, in [4] (in words, 0.125 μM), the “effect on C26 proliferation alone” value is listed as “no effect”. The “synergy with FU and/or LV on C26 cells” value in data set [4] (in words, 0.125 μM) was “no significant synergy”. Also, the values for the IC50 with P388S cells and in the data set on P388/ADR cells [6] were 0.0069 µg/mL (≈ 0.0187 µM) and 0.152 µg/mL (≈ 0.411 µM), respectively. For the same molecule, the R/S with P388/ADR cells [6] is reported as 22.

As to `CC(=O)c1ccc(N2CCN(c3c(C)nc(N)nc3N)CC2)cc1` [D, 1-{4-[4-(2,4-Diamino-6-methyl-pyrimidin-5-yl)-piperazin-1-yl]-phenyl}-ethanone], the pKi (usually the Ki on a negative log10 scale, so that one unit is a factor of ten) on dihydrofolate reductase is 9.88. The “Antifol + FU” value in [7] is 50% of control; in data set [5] it was 10% of control. Further, the entries for the “Antifol + LV + FU” value in data set [7] and in data set [5] were 42% of control and 5% of control, respectively. Moreover, in the data set on C26/10 tumor, the “C26 sc T-C” value came to 17.3 days. Further, in the data set with P388/ADR leukemia, the “P388/ADR T/C” value was 180%. In data set [2], the “C26 ip T/C” value amounted to 171%. The “P388S T/C” value with P388 leukemia is 182%. For the same molecule, the “Antifol + LV” value in [3] (setting [9]) is 90% of control; in data set [5] it was 110% of control. In addition, the values for the Antifol in [3] and in data set [5] were 92% of control and 70% of control, respectively. Besides, the IC50 with P388S cells and with P388/ADR cells [6] was 0.01 µg/mL (≈ 0.0306 µM) throughout. In addition, the R/S in the data set on P388/ADR cells [6] came to 1.
